# Columns and labels:
# sedge, umbrella = assay: Test B flooded paddy test; assay type: in vivo, Cyperus difformis; settings: 500 g ai/ha, Flood; scale of 0 to 100 where 0 is no effect and 100 is complete control
# Outline: (§1)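 Treatment was made at the 2-leaf stage by dosing the standing floodwater, kept 3 cm above soil level for the whole test. Greenhouse exposure lasted 13 to 15 days. Response is a visual percent rating relative to controls, where a dash indicates no test result.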
# giant foxtail = assay: Test A pre-/postemergence herbicide test; assay type: in vivo, Setaria faberii
# Outline: (§2)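 Scoring was visual, relative to untreated controls, on a 0–100 scale after about 10 greenhouse days. Preemergence treatment used a directed soil spray over seeded loam/sand; postemergence treatment targeted one- to two-leaf plants of 2–10 cm.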
# blackgrass = assay: Test A postemergence herbicide test; assay type: in vivo, Alopecurus myosuroides
# Outline: (§3)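 Visual injury rating, 0 (no effect) to 100 (complete control), versus untreated controls ~10 days after treatment. Postemergence spray applied at one- to two-leaf stage, plants 2–10 cm tall, potted in loam soil/sand. Greenhouse-held.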
# ragweed = assay: Test A pre-/postemergence herbicide test; assay type: in vivo, Ambrosia elatior
# Outline: as §2
# ducksalad = assay: Test B flooded paddy test; assay type: in vivo, Heteranthera limosa; settings: 500 g ai/ha, Flood; scale of 0 to 100 where 0 is no effect and 100 is complete control
# Outline: as §1
# barnyardgrass [1] = assay: Test B flooded paddy test; assay type: in vivo, Echinochloa crus-galli; settings: 500 g ai/ha, Flood; scale of 0 to 100 where 0 is no effect and 100 is complete control
# Outline: as §1
# ryegrass, Italian = assay: Test A pre-/postemergence herbicide test; assay type: in vivo, Lolium multiflorum
# Outline: as §2
# rice = assay: Test B flooded paddy test; assay type: in vivo, Oryza sativa; settings: 500 g ai/ha, Flood; scale of 0 to 100 where 0 is no effect and 100 is complete control
# Outline: as §1
# wheat = assay: Test A pre-/postemergence herbicide test; assay type: in vivo, Triticum aestivum; settings: Postemergence
# Outline: as §2
# kochia = assay: Test A pre-/postemergence herbicide test; assay type: in vivo, Kochia scoparia
# Outline: as §2
# pigweed = assay: Test A pre-/postemergence herbicide test; assay type: in vivo, Amaranthus retroflexus
# Outline: as §2
# corn = assay: Test A pre-/postemergence herbicide test; assay type: in vivo, Zea mays; settings: Postemergence
# Outline: as §2
# barnyardgrass [2] = assay: Test A pre-/postemergence herbicide test; assay type: in vivo, Echinochloa crus-galli
# Outline: as §2
# galium = assay: Test A postemergence herbicide test; assay type: in vivo, Galium aparine
# Outline: as §3
# [3] = 125 g ai/ha, visual rating, 0 to 100 scale, 0 no effect, 100 complete control, approximately 10 days, preemergence
# [4] = Postemergence, 125 g ai/ha, 0 to 100 scale, 0 is no effect, 100 is complete control
# [5] = preemergence, 500 g ai/ha, 0 to 100 scale, 0 is no effect and 100 is complete control
# [6] = 125 g ai/ha, 0 to 100 scale, 0 is no effect, 100 is complete control
# [7] = Postemergence, 125 g ai/ha, visual rating on 0 to 100 scale (0 no effect, 100 complete control), approx. 10 days
# [8] = Postemergence, 500 g ai/ha, 0 to 100 scale (0 no effect, 100 complete control)
# [9] = Preemergence, 125 g ai/ha, 0 to 100 scale where 0 is no effect and 100 is complete control
# [10] = 125 g ai/ha, visual rating on 0 to 100 scale (0 no effect, 100 complete control), approx. 10 days
# [11] = 500 g ai/ha, 0 to 100 scale (0 no effect, 100 complete control)
smiles,measurement,setting,value
O=C1NCC(c2ccc(Cl)cc2)C1C(=O)Nc1cccc(Cl)c1Cl (stereo not drawn) [Compound 221],"Plant response rating, Sedge, Umbrella","sedge, umbrella",0
same,"Plant response rating, Foxtail, Giant",giant foxtail; [3],60
same,"Plant response rating, Foxtail, Giant",giant foxtail; [4],0
same,"Foxtail, Giant plant response rating (0 to 100 scale, 0 is no effect, 100 is complete control)","giant foxtail; Postemergence, 500 g ai/ha",30
same,"Plant response rating, Foxtail, Giant",giant foxtail; [5],80
same,"Plant response rating, Blackgrass",blackgrass; [6],0
same,"Blackgrass plant response rating (0 to 100 scale, 0 is no effect, 100 is complete control)",blackgrass; 500 g ai/ha,0
same,"Plant response rating, Ragweed",ragweed; [3],0
same,"Plant response rating, Ragweed",ragweed; [4],0
same,"Ragweed plant response rating (0 to 100 scale, 0 is no effect, 100 is complete control)","ragweed; Postemergence, 500 g ai/ha",0
same,"Plant response rating, Ragweed",ragweed; [5],0
same,"Plant response rating, Ducksalad",ducksalad,0
same,"Plant response rating, Barnyardgrass",barnyardgrass [1],0
same,"Plant response rating, Ryegrass, Italian","ryegrass, Italian; [3]",0
same,"Plant response rating, Ryegrass, Italian","ryegrass, Italian; [4]",0
same,"Ryegrass, Italian plant response rating (0 to 100 scale, 0 is no effect, 100 is complete control)","ryegrass, Italian; Postemergence, 500 g ai/ha",0
same,"Plant response rating, Ryegrass, Italian","ryegrass, Italian; [5]",0
same,"Plant response rating, Rice",rice,0
same,"Plant response rating, Wheat",wheat; [6],0
same,"Wheat plant response rating (0 to 100 scale, 0 is no effect, 100 is complete control)",wheat; 500 g ai/ha,0
same,"Plant response rating, Kochia",kochia; [3],0
same,"Plant response rating, Kochia",kochia; [4],0
same,"Kochia plant response rating (0 to 100 scale, 0 is no effect, 100 is complete control)","kochia; Postemergence, 500 g ai/ha",0
same,"Plant response rating, Kochia",kochia; [5],0
same,"Plant response rating, Pigweed",pigweed; [3],0
same,"Plant response rating, Pigweed",pigweed; [4],0
same,"Pigweed plant response rating (0 to 100 scale, 0 is no effect, 100 is complete control)","pigweed; Postemergence, 500 g ai/ha",0
same,"Plant response rating, Pigweed",pigweed; [5],0
same,"Plant response rating, Corn",corn; [6],0
same,"Corn plant response rating (0 to 100 scale, 0 is no effect, 100 is complete control)",corn; 500 g ai/ha,0
same,"Plant response rating, Barnyardgrass",barnyardgrass [2]; [3],0
same,"Plant response rating, Barnyardgrass",barnyardgrass [2]; [4],0
same,"Barnyardgrass plant response rating (0 to 100 scale, 0 is no effect, 100 is complete control)","barnyardgrass [2]; Postemergence, 500 g ai/ha",0
same,"Plant response rating, Barnyardgrass",barnyardgrass [2]; [5],0
same,"Plant response rating, Galium",galium; [6],0
same,"Galium plant response rating (0 to 100 scale, 0 is no effect, 100 is complete control)",galium; 500 g ai/ha,0
O=C1NCC(c2cnn(CC(F)(F)F)c2)C1C(=O)Nc1cccc(F)c1F (stereo not drawn) [Compound 299],"Plant response rating, Sedge, Umbrella","sedge, umbrella",0
same,"Plant response rating, Foxtail, Giant",giant foxtail; [7],0
same,"Plant response rating, Foxtail, Giant",giant foxtail; [8],50
same,"Plant response rating, Foxtail, Giant",giant foxtail; [9],50
same,"Plant response rating, Foxtail, Giant",giant foxtail; [5],80
same,"Plant response rating, Blackgrass",blackgrass; [10],0
same,"Plant response rating, Blackgrass",blackgrass; [11],0
same,"Plant response rating, Ragweed",ragweed; [7],0
same,"Plant response rating, Ragweed",ragweed; [8],0
same,"Plant response rating, Ragweed",ragweed; [9],0
same,"Plant response rating, Ragweed",ragweed; [5],0
same,"Plant response rating, Ducksalad",ducksalad,50
same,"Plant response rating, Barnyardgrass",barnyardgrass [1],30
same,"Plant response rating, Ryegrass, Italian","ryegrass, Italian; [7]",0
same,"Plant response rating, Ryegrass, Italian","ryegrass, Italian; [8]",0
same,"Plant response rating, Ryegrass, Italian","ryegrass, Italian; [9]",0
same,"Ryegrass, Italian plant response rating","ryegrass, Italian; Preemergence, 500 g ai/ha, visual rating on 0 to 100 scale (0 no effect, 100 complete control)",0
same,"Plant response rating, Rice",rice,0
same,"Plant response rating, Wheat",wheat; [10],0
same,"Plant response rating, Wheat",wheat; [11],0
same,"Plant response rating, Kochia",kochia; [7],0
same,"Plant response rating, Kochia",kochia; [8],0
same,"Plant response rating, Kochia",kochia; [9],0
same,"Plant response rating, Kochia",kochia; [5],0
same,"Plant response rating, Pigweed",pigweed; [7],0
same,"Plant response rating, Pigweed",pigweed; [8],0
same,"Plant response rating, Pigweed",pigweed; [9],0
same,"Plant response rating, Pigweed",pigweed; [5],0
same,"Plant response rating, Corn",corn; [10],0
same,"Plant response rating, Corn",corn; [11],0
same,"Plant response rating, Barnyardgrass",barnyardgrass [2]; [7],30
same,"Plant response rating, Barnyardgrass",barnyardgrass [2]; [8],70
same,"Plant response rating, Barnyardgrass",barnyardgrass [2]; [9],10
same,"Plant response rating, Barnyardgrass",barnyardgrass [2]; [5],70
same,"Plant response rating, Galium",galium; [10],0
same,"Plant response rating, Galium",galium; [11],0
